In patent US8658158B2, “Sensitization of chemotherapeutic agent resistant neoplastic cells with a virus” (Oncolytics Biotech Inc., priority 2001, dated 2014):
“Also recorded” adds a separate entry of the source.

System: ras-transformed C3H cells (C3H10T1/2 derived tumors)
Assay: Tumor growth in C3H mice bearing subcutaneous ras-transformed C3H cell tumors, treated with reovirus and/or cisplatin
Assay type: in vivo
Details: syngeneic tumors measured daily from Day 0, cisplatin 2.5 mg/kg tail vein Days 10, 16, 22, reovirus 5×10^8 PFUs i.v. Days 0, 6, 12, 18
From the text: C3H mice (Charles River) were implanted subcutaneously with 1.0×10^6 […] ras-transformed C3H cells (a gift of D. Edwards, University of Calgary) and allowed to develop tumors. The Dearing strain of reovirus serotype 3 used in these studies was propagated in suspension cultures of L cells and purified according to Smith (Smith et al., 1969) with the exception that β-mercaptoethanol (β-ME) was omitted from the extraction buffer. The particle/PFU ratio for purified reovirus was typically 100/1.
The tumor bearing mice were treated with 4 different regimes as described below:
For animals which received reovirus (Series 3-4), 5×10^8 PFUs of reovirus (in 20 μl of saline) were injected intravenously via the tail vein of the animals on Days 0, 6, 12, and 18. […] Cisplatin was injected into the tail vein on Days 10, 16 and 22 at a dose of 2.5 mg per kilogram of body weight. The tumors were measured daily from Day 0 to assess growth rate of the tumors.

N.N.[Cl][Pt][Cl] [cisplatin]
effect on growth rate of the tumors: essentially no inhibitory effects; also recorded: no effect on the tumor; also recorded: growth rate that was essentially the same as untreated tumors
